{
  "source": "patent US20210015749A1",
  "about": "“NANOCOCHLEATE FORMULATION AND METHOD OF PREPARING THE NANOCOCHLEATE FORMULATION” (priority 2019, published 2021)",
  "tested_on": "glucocorticoid-treated rats",
  "test": "Biochemical tests of serum bone parameters in treatment groups of osteoporotic (prednisolone) rats",
  "format": "in vivo, rat",
  "key": {"[1]": {"conditions": "serum, * = significant difference with prednisolone group"}},
  "data": [
    {"substance": "Vitamin D", "values": [
      {"measurement": "Ph", "setting": "serum phosphorus", "result": "7.525 ± 0.4272"},
      {"measurement": "Bone-ALP", "setting": "[1]", "result": "312 ± 24.42"},
      {"measurement": "Ca", "setting": "[1]", "result": "9.367 ± 0.3786"},
      {"measurement": "OPG", "setting": "[1]", "result": "3.325 ± .9012"},
      {"measurement": "Osteocalcin", "setting": "[1]", "result": "16.5 ± 2.121"}
    ]}
  ]
}
